The term Ki denotes the equilibrium dissociation constant of an inhibitor or competing ligand from its target.

One experiment has as its target T1, human D2L (Homo sapiens, UniProt P14416).
T1 construct: expressed in transfected cells
As to the kind of experiment: [3H]spiperone competition/saturation binding, membranes of CHO cells expressing human D2L. Conditions: [³H]spiperone competition, CHO cell membranes; read-out: Ki ± s.d. hD2L.

The target in another experiment is T2, human D2S (Homo sapiens, UniProt P14416).
T2 construct: expressed in transfected cells
T2 sequence (P14416 1-414 isoform P14416-2): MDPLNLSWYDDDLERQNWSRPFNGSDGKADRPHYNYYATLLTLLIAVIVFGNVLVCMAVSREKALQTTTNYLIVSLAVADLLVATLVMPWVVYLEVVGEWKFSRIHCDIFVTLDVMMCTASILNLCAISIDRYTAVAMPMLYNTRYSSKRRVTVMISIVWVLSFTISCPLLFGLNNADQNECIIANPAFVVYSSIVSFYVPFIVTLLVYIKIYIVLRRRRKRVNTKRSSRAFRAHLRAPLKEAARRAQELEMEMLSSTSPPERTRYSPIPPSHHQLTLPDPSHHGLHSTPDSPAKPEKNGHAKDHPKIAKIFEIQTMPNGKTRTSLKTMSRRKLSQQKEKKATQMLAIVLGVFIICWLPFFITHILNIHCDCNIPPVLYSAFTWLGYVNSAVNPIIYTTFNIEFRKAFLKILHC
As to the kind of experiment: [3H]spiperone competition/saturation binding, membranes of CHO cells expressing human D2S. Conditions: [³H]spiperone competition, CHO cell membranes; read-out: Ki ± s.d. hD2S.

The next experiment has as its target SNAP-D2L receptors (Homo sapiens, UniProt P14416+P16455, A127T/A154D/C150Q/C62A/E30R/G131K/G132T/G153L/K125A/K32I/L33F/M134L/N157G/Q115S/Q116H/R128A/R135S/S151G/S152D/S159E). Nature of the experiment: [3H]spiperone competition/saturation binding, membranes of CHO cells expressing SNAP-D2L.
The next experiment deals with T3, SNAP-D2L receptor (Homo sapiens, UniProt P14416).
T3 construct: expressed in transfected cells
T3 sequence (P14416 whole entry): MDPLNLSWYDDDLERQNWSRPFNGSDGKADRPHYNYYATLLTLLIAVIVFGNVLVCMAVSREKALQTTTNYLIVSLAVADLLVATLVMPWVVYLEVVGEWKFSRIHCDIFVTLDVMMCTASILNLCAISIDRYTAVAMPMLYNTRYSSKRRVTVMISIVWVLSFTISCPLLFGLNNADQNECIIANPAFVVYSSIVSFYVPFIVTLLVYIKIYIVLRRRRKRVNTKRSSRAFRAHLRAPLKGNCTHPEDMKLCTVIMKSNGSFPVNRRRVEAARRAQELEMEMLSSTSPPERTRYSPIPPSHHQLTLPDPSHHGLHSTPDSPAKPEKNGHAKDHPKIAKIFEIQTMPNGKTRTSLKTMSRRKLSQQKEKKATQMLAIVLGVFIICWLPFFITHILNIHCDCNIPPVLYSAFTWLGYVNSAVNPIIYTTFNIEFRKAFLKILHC
As to the kind of experiment: Single-molecule TIRF-M of SNAP-D2L receptors in CHO cells with ligands (dimerization, mobility, colocalization). The class given is cell-based. The conditions noted are these: for effect on monomer/dimer ratio and mobility of the SNAP-D2L receptor compared to ligand-free conditions: Alexa546-labeled SNAP-D2L in CHO cells incubated with ligand; for Average Dlat 24°C (average lateral diffusion coefficient) / Density (spots µm-2) / fraction of dimers: SNAP-D2L in CHO cells; for Average Dlat 24°C (average lateral diffusion coefficient) / Density (spots µm-2): mean ± s.d.; for mean apparent colocalization lifetime τ of two receptors in a dimer: SNAP-D2L incubated with ligand, one-phase exponential decay fit, 120 trajectories, ligand free 0.46 s; for fraction of dimers: 10-fold Ki, ligand-free 30%. As to the method: 24 h before the TIRF-experiment dried and cleaned glass slides were placed in a 12 well plate and were coated by incubation with 20 μg ml^−1 fibronectin (Sigma–Aldrich) in sterile PBS for 1 h at 37 °C. After coating, fibronectin was aspirated and the glass surface was rinsed one time with sterile PBS. CHO cells expressing SNAP-D2L, SNAP-CD86, SNAP-CD28, D2L, D2S or D3 receptors were seeded on coated glass slides in phenol-red-free DMEM/F12 supplemented with 10% FCS and were allowed to adhere overnight at 37 °C and 5% CO2.
Subsequently, cells were washed three times with phenol red-free DMEM/F12 supplemented with 10% FBS, each time followed by 5 min incubation at 37 °C.
For the ligand treatment experiments, the indicated concentration of the corresponding ligand in phenol red-free DMEM/F12 supplemented with 10% FBS were added to stably transfected CHO cells, which were ready for imaging, for 1 h before imaging.
Subsequently after labeling, cells were washed three times with phenol red-free DMEM/F12 supplemented with 10% FBS. […] Finally the imaging chamber was refilled with fresh imaging buffer and mounted immediately on a microscope stage for TIRF-M imaging.
The microscope control and image acquisition were performed by the NIS Elements software (Nikon Instruments). To ensure homogenous illumination, only the central quarter of the chip (300 × 300 pixel) was used for imaging analysis.
The image analysis procedures have been described in detail previously. An automated single particle tracking (ASPT) algorithm[58] implemented in custom-written software, GMimPro (www.mashanov.uk), was used to identify and track individual fluorescent spots on sequential video frames. ASPT settings used were FWHM300nm, R5, L20, Q10 and C999. Output from this image analysis gave fluorophore centroid positions (with 25 nm precision), integrated fluorophore intensities, total fluorophore number and trajectory lifetime. Spatial trajectories and intensity trajectories (i.e. intensities vs. time) were then further analysed to determine: the lateral diffusion coefficient, Dlat, which was derived from averaged mean squared displacement (MSD) versus time interval (δt), the average fluorescent spot density (spot μm^−^2) and distribution across the cell membrane and the intensity distribution of individual fluorescent spots and intensity fluctuation with time as well as the lifetime of colocalization. The Dlat was measured for each cell separately and the average value (average Dlat, mean ± standard deviation (s.d.)) was calculated for an indicated number of cells. Slow-moving objects Dlat < 0.02 μm^2 s^−1 were excluded from the analysis and only cells with a mobile trajectory fraction (trajectories with a Dlat > 0.02 μm^2 s^−1) over 0.75 were used for further analysis. Intensity distributions of fluorescent spots identified over the first 10-frame time window of TIRF illumination were fitted with a sum of Gaussian distributions (with standard deviation proportional to square root of intensity level) using the PRISM routine. The ratio of the areas under the Gaussian curves was calculated to give the percentage of the underlying component. Unpaired two-tailed Student´s t-tests were used for statistical significance.

A further experiment deals with T4, human D3 (Homo sapiens, UniProt P35462).
T4 construct: expressed in transfected cells
T4 sequence (P35462 whole entry): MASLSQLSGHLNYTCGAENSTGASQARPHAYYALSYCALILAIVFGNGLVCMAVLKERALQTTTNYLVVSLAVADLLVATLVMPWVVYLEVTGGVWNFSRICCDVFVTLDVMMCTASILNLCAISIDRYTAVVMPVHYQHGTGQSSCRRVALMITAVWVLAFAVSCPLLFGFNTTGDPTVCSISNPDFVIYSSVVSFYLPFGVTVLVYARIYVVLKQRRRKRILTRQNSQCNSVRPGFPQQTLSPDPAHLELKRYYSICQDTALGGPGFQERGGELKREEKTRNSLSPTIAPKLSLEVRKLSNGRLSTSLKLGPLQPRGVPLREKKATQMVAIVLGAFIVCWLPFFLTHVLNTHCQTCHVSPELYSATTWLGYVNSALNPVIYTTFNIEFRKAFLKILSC
Nature of the experiment: [3H]spiperone competition/saturation binding, membranes of CHO cells expressing human D3. The conditions noted are these: [³H]spiperone competition, CHO cell membranes; read-out: Ki ± s.d. hD3.

Setting [1] is: 10 x Ki value labeling concentration.
[2] abbreviates: 100 x Ki value labeling concentration.

T1 sequence (P14416 whole entry): as the sequence (P14416 whole entry) above
Sequence of SNAP-D2L receptors (P16455+P14416 fused with the stated changes): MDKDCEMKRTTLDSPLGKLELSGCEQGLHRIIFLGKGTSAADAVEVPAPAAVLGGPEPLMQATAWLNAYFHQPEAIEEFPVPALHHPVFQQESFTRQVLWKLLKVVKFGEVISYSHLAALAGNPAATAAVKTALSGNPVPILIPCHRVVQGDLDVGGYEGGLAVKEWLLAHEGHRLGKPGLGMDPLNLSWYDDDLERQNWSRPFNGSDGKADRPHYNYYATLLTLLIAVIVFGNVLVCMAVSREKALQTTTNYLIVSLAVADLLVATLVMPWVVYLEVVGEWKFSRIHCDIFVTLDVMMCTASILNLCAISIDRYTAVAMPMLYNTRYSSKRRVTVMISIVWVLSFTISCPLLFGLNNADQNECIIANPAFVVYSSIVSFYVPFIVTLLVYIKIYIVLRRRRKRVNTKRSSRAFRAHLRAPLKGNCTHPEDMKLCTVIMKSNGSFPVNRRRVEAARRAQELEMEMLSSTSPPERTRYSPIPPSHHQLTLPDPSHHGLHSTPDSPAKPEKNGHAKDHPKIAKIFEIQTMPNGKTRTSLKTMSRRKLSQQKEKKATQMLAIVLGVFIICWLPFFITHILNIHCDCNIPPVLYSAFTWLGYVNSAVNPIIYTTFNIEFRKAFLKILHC

As for `CCCCn1cc(CCCOc2ccc(CN3CCN(c4ccccc4OC)CC3)cc2OC)nn1` [1a], the Ki on human D2L was 67 ± 33 nM; on human D2S it was 53 ± 37 nM; at SNAP-D2L receptors, 280 ± 190 nM; on human D3, 615 ± 370 nM. At SNAP-D2L receptor, the “effect on monomer/dimer ratio and mobility of the SNAP-D2L receptor compared to ligand-free conditions” value is “no effect”. In addition, the “Average Dlat 24°C (average lateral diffusion coefficient)” value (“Average Dlat 24°C” for short) came to 0.087 ± 0.003 µm² s-1 on SNAP-D2L receptor (setting [1]) and 0.083 ± 0.005 µm² s-1 at SNAP-D2L receptor (setting [2]). In addition, the “Density (spots µm-2)” value on SNAP-D2L receptor (setting [1]) came out at 0.68 ± 0.04 spots µm-2; at SNAP-D2L receptor (setting [2]) it was 0.69 ± 0.03 spots µm-2. For the same compound, the “mean apparent colocalization lifetime τ of two receptors in a dimer” value on SNAP-D2L receptor was found to be 0.42 s.

Take `CCCCn1cc(CCCOc2ccc(CN3CCN(c4ccccc4OC)CC3)cc2OCCCCN)nn1` [1b]: the Ki is 15 ± 8 nM at human D2L, 18 ± 5.7 nM on human D2S, 4.8 ± 0.28 nM at SNAP-D2L receptors and 70 ± 24 nM on human D3. Further, the “effect on monomer/dimer ratio and mobility of the SNAP-D2L receptor compared to ligand-free conditions” value at SNAP-D2L receptor is “no effect”. The “Average Dlat 24°C” value turned out to be 0.085± 0.004 µm² s-1 at SNAP-D2L receptor (setting [1]) and 0.081 ± 0.006 µm² s-1 on SNAP-D2L receptor (setting [2]). Further, the “Density (spots µm-2)” value at SNAP-D2L receptor (setting [1]) is given as 0.66 ± 0.04 spots µm-2; on SNAP-D2L receptor (setting [2]), 0.69 ± 0.04 spots µm-2.

Consider `COc1cc(CN2CCN(c3ccccc3OC)CC2)ccc1OCCCc1cn(CCCCCCCCn2cc(CCCOc3ccc(CN4CCN(c5ccccc5OC)CC4)cc3OC)nn2)nn1` [2a], for which the Ki was 22 ± 6.7 nM at human D2L, 41 ± 19 nM at human D2S, 20 ± 7.1 nM on SNAP-D2L receptors and 84 ± 24 nM at human D3. At SNAP-D2L receptor, this compound came in with a fraction of dimers of 66%. The entries for the “Average Dlat 24°C” value at SNAP-D2L receptor (setting [1]) and at SNAP-D2L receptor (setting [2]) were 0.074 ± 0.004 µm² s-1 and 0.075 ± 0.005 µm² s-1, respectively. Also, the “Density (spots µm-2)” value at SNAP-D2L receptor (setting [1]) and on SNAP-D2L receptor (setting [2]) was 0.65 ± 0.04 spots µm-2 each time. Further, at SNAP-D2L receptor, the “mean apparent colocalization lifetime τ of two receptors in a dimer” value was found to be 1.16 s.

Regarding `COc1ccccc1N1CCN(Cc2ccc(OCCCc3cn(CCCCCCCCn4cc(CCCOc5ccc(CN6CCN(c7ccccc7OC)CC6)cc5OCCCCN)nn4)nn3)c(OCCCCN)c2)CC1` [2b], the Ki on human D2L was 3 ± 0.29 nM; at human D2S, 3 ± 0.92 nM; at SNAP-D2L receptors it was 2.4 ± 1.1 nM; at human D3, 2.6 ± 0.64 nM. Moreover, the fraction of dimers on SNAP-D2L receptor was found to be 58%. In addition, the “Average Dlat 24°C” value is 0.075 ± 0.004 µm² s-1 at SNAP-D2L receptor (setting [1]) and 0.071 ± 0.05 µm² s-1 on SNAP-D2L receptor (setting [2]). In addition, the “Density (spots µm-2)” value is recorded as 0.64 ± 0.04 spots µm-2 at SNAP-D2L receptor (setting [1]) and 0.67 ± 0.02 spots µm-2 at SNAP-D2L receptor (setting [2]).

Take `COc1cc(CN2CCN(C)CC2)ccc1OCCCc1cn(CCCCCCCCn2cc(CCCOc3ccc(CN4CCN(c5ccccc5OC)CC4)cc3OC)nn2)nn1` [3a]: the Ki was 9.8 ± 9.8 nM at human D2L, 7.3 ± 1.3 nM at human D2S and 220 ± 83 nM at human D3. Also, the “Average Dlat 24°C” value at SNAP-D2L receptor (setting [1]) worked out at 0.083 ± 0.004 µm² s-1. Besides, the “Density (spots µm-2)” value at SNAP-D2L receptor (setting [1]) was 0.67 ± 0.03 spots µm-2.

For `COc1cc(CN2CCN(c3ccccc3OC)CC2)ccc1OCCCc1cn(CCCCCCCCn2cc(CCCOc3ccc(CN4CCN(C5CCCCC5)CC4)cc3OC)nn2)nn1` [3b], the Ki on human D2L came to 19 ± 8.2 nM; at human D2S, 17 ± 8.1 nM; on human D3, 100 ± 33 nM. Also, at SNAP-D2L receptor (setting [1]), the “Average Dlat 24°C” value stood at 0.083 ± 0.005 µm² s-1. For the same compound, the “Density (spots µm-2)” value at SNAP-D2L receptor (setting [1]) turned out to be 0.68 ± 0.04 spots µm-2.

(Values after publication PMC5018964, “Visualization and ligand-induced modulation of dopamine receptor dimerization at the single molecule level” (Scientific Reports, 2016).)
